The supplement of paper PMC10307832

Experiments:
Assay in all cases: relative viability (nuclei count vs DMSO), 5 days (fraction); higher = more cells survive
Selisistat + Alpelisib = compound: C1CC(C2=C(C1)C3=C(N2)C=CC(=C3)Cl)C(=O)N [Selisistat] + Cc1nc(NC(=O)N2CCC[C@H]2C(N)=O)sc1-c1ccnc(C(C)(C)C(F)(F)F)c1 [Alpelisib] (partner 2 µM)
Method in brief: (§1)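 After 5 days of treatment, lung cancer cells in 1536-well plates were fixed and stained in a single step (final 0.05% Triton X-100, 1% formaldehyde, 1 ug/ml Hoechst) and their nuclei counted on 4× images. Treatment had been applied by pin tool the day after seeding as one drug alone or as a fixed anchor-drug dose with five library-drug doses (not always all listed) in √10 steps. Relative viability is the nuclei count of treated wells divided by that of vehicle wells, and values are medians of duplicate plates.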

Serdemetan + Pemetrexed = compound: c1ccc2c(CCNc3ccc(Nc4ccncc4)cc3)c[nH]c2c1 [Serdemetan] + Nc1nc2[nH]cc(CCc3ccc(C(=O)N[C@@H](CCC(=O)O)C(=O)O)cc3)c2c(=O)[nH]1 [Pemetrexed] (partner 0.2 µM)
Method in brief: as §1

Serdemetan = compound: c1ccc2c(CCNc3ccc(Nc4ccncc4)cc3)c[nH]c2c1 [Serdemetan]
Method in brief: (§2)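 Nuclei counted with MetaXpress define viability as the ratio of treated to vehicle wells, given as a median across plates. The lung cancer cell lines were in 1536-well plates, pinned with five √10-spaced library-drug doses and imaged at 4× after 5 days and Hoechst staining. Plates passed with control CV below 25% and at least one doubling.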

Selisistat = compound: C1CC(C2=C(C1)C3=C(N2)C=CC(=C3)Cl)C(=O)N [Selisistat]
Method in brief: as §2

Cell Line | relative viability (Selisistat + Alpelisib; first compound 0.4 µM) | relative viability (Selisistat + Alpelisib; first compound 1.265 µM) | relative viability (Selisistat + Alpelisib; first compound 4 µM) | relative viability (Selisistat + Alpelisib; first compound 12.65 µM) | relative viability (Selisistat + Alpelisib; first compound 40 µM) | relative viability (Serdemetan + Pemetrexed; first compound 0.04 µM) | relative viability (Serdemetan + Pemetrexed; first compound 0.1265 µM) | relative viability (Serdemetan + Pemetrexed; first compound 0.4 µM) | relative viability (Serdemetan + Pemetrexed; first compound 1.265 µM) | relative viability (Serdemetan + Pemetrexed; first compound 4 µM) | relative viability (Serdemetan; 0.04 µM) | relative viability (Serdemetan; 0.1265 µM) | relative viability (Serdemetan; 0.4 µM) | relative viability (Serdemetan; 1.265 µM) | relative viability (Serdemetan; 4 µM) | relative viability (Selisistat; 0.4 µM) | relative viability (Selisistat; 1.265 µM) | relative viability (Selisistat; 12.65 µM) | relative viability (Selisistat; 40 µM) | relative viability (Selisistat; 4 µM)
NCI-H2087 | 1.33 | 0.933 | 1 | 0.971 | 1.04 | 0.704 | 0.611 | 0.643 | 0.404 | 0.28 | 1.16 | 1.08 | 0.944 | 0.57 | 0.409 | 1.18 | 1.06 | 0.89 | 0.97 | 
NCI-H2126 | 0.812 | 0.77 | 0.758 | 0.863 | 0.81 | 0.671 | 0.707 | 0.579 | 0.601 | 0.78 | 1.02 | 1.05 | 0.96 | 0.948 | 1.02 | 1.08 | 1.05 | 0.999 | 1.02 | 0.833
NCI-H2170 | 0.885 | 0.805 | 0.815 | 0.771 | 0.881 | 0.231 | 0.288 | 0.248 | 0.266 | 0.284 | 1 | 1.02 | 1 | 0.972 | 0.985 | 1.02 | 0.978 | 1.03 | 1.1 | 0.956
NCI-H2228 | 0.721 | 0.687 | 0.587 | 0.691 | 0.647 | 0.349 | 0.364 | 0.325 | 0.312 | 0.253 | 0.974 | 0.98 | 0.945 | 0.342 | 0.336 | 0.9 | 1.12 | 1.05 | 1.11 | 0.966
NCI-H2347 | 1.17 | 1.15 | 0.824 | 1 | 1.12 | 0.498 | 0.429 | 0.42 |  | 0.445 | 0.982 | 0.887 | 0.903 | 0.603 | 0.7 | 1.02 | 1.09 | 0.993 | 0.99 | 0.716
NCI-H2405 | 0.769 |  |  | 0.834 | 0.845 | 1.04 | 1.02 | 1.1 | 0.609 | 0.983 | 0.99 | 1.01 | 0.984 | 0.921 | 0.859 | 1.06 | 0.88 | 0.984 | 0.992 | 0.657
NCI-H3122 | 0.743 | 0.694 | 0.407 | 0.873 | 0.748 | 0.182 | 0.201 | 0.197 | 0.178 | 0.2 | 0.995 | 0.984 | 0.948 | 0.758 | 1.02 | 1.03 | 1.07 | 1.03 | 1.02 | 0.782
PC-3 [JPC-3] | 1.08 | 0.973 | 1.05 | 1.02 | 1.05 | 1.12 | 1.07 | 0.991 | 0.829 | 1.05 | 1.04 | 0.961 | 0.702 | 0.98 | 1.06 | 1.14 | 1.04 | 1.07 | 0.948 | 0.85
PC-14 | 0.918 | 0.885 | 0.994 | 0.952 | 1.1 | 0.133 | 0.139 |  | 0.137 | 0.143 | 0.966 | 0.972 | 0.689 | 0.907 | 0.728 | 1.02 | 0.957 | 0.954 | 1.09 | 0.891
RERF-LC-KJ | 0.853 | 0.754 | 0.632 | 0.789 | 0.73 | 0.455 | 0.456 | 0.452 | 0.475 | 0.49 | 0.99 | 0.948 | 0.93 | 0.942 | 0.939 | 1.06 | 0.969 | 0.836 | 0.87 | 0.927
SK-LU-1 | 1.02 | 1.05 | 1.33 | 1.03 | 0.846 | 0.941 | 0.895 | 1.07 | 0.908 | 0.722 | 1.02 | 0.999 | 1.1 | 0.802 | 0.828 | 1.08 | 1.07 | 1.08 | 1.13 | 1.08
SK-MES-1 | 1.01 | 0.951 | 0.836 | 0.838 | 0.896 | 0.938 | 0.89 | 0.824 | 0.772 | 0.841 | 0.959 | 1.01 | 0.971 | 0.831 | 0.741 | 1.09 | 0.986 | 0.93 | 0.976 | 0.955
SW 1573 | 0.703 | 0.884 | 0.716 | 0.804 | 0.864 | 0.869 | 0.851 | 0.887 | 0.689 | 0.376 | 0.904 | 1.11 | 0.966 | 0.48 | 0.343 | 1.12 | 0.89 | 1.03 | 1.05 | 0.896
UMC-11 | 1.19 | 0.99 | 1.04 | 0.994 | 0.887 | 0.776 | 0.718 | 0.689 | 0.666 | 0.586 | 0.935 | 1.01 | 0.902 | 0.661 | 0.924 | 1 | 0.962 | 0.978 | 1.06 | 0.883
